Assay results from patent US20220348572A1, “BRIDGED HETEROCYCLYL-SUBSTITUTED PYRIMIDINE COMPOUND, PREPARATION METHOD THEREFOR, AND PHARMACEUTICAL USE THEREOF” (The National Institutes of Pharmaceutical R&D Co., Ltd., priority 2019, published 2022).

target: T1, JAK1 kinase (Homo sapiens, UniProt P23458); assay: In vitro inhibitory activity on JAK1 kinase (ADP-Glo Kinase Assay); format: biochemical; conditions: JAK1 kinase 4 nM, 1 mM ATP
T1 construct: purchased Invitrogen PV4744
Method: Test Example 1: Determination of In Vitro Inhibitory Activity of the Compounds of the Present Invention on JAK1 Kinase Experimental materials: JAK1 kinase (Invitrogen, PV4744), ATP (Promega, V915B), ADP-Glo Kinase Assay (Promega, V9101), IRS1 (Signalchem, 140-58-1000). Sample preparation: The compounds of the present invention and the control product were dissolved in DMSO solvent respectively to formulate into 10 mM initial liquid. The maximum concentration of the compound was 10 μM, 3-fold dilution, 10 concentration gradients, and duplicate wells for each concentration gradient. Experimental processs: 0.1 μL of the compound to be tested was transferred into a 384 reaction plate (PE, 6007290) via Echo and centrifuged at 1000 rpm/min for 1 min. 5 μL JAK1 kinase (final concentration of 4 nM) was transferred into the 384 reaction plate, which was then centrifuged at 1000 rpm/min for 1 min, and incubated at 25° C. for 15 min. 5 μL substrate mixture (1 mM ATP, IRS1 0.05 mg/ml, kinase buffer solution) was transferred into the 384 reaction plate, which was then centrifuged at 1000 rpm/min for 1 min, and incubated at 25° C. for 60 min. 10 μL ADP-Glo was transferred into the 384 reaction plate, which was then centrifuged at 1000 rpm/min for 1 min, and incubated at 25° C. for 40 min. 20 μL test solution was transferred into the 384 reaction plate, which was then centrifuged at 1000 rpm/min for 1 min and incubated at 25° C. for 40 min. RLU (Relative luminescence unit) signal was read by using an Envision multifunctional plate reader. The signal intensity was used to characterize the degree of the kinase activity. […] IC50 value of 0-100 nM is shown as A, IC50 value of 100-300 nM is shown as B, IC50 value of 300-1000 nM is shown as C, and IC50 value which is greater than 1000 nM is shown as D. NT means not tested.

T1 sequence (P23458 866-1154 limits assumed): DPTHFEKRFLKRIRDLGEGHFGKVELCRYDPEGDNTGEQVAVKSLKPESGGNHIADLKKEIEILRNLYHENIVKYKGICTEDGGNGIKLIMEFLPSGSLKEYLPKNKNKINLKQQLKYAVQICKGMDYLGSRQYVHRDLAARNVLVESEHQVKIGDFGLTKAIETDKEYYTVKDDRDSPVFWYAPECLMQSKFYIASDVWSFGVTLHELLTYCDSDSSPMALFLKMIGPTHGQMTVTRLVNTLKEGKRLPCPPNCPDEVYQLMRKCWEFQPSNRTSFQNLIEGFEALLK

Compound	IC50
Cn1cc(Nc2ncc(C#N)c(C3=CC4CCC(C3)N4C(=O)NCC(F)(F)F)n2)cn1 (stereo not shown) [Compound 35, 3-(5-cyano-2-((1-methyl-1H-pyrazol-4-yl)amino)pyrimidin-4-yl)-N-(2,2,2-trifluoroethyl)-8-azabicyclo[3.2.1]oct-2-ene-8-carboxamide]	100 to 300 nM
Cn1cc(Nc2nccc(C3=C[C@H]4CC[C@@H](C3)N4C(=O)NCC(F)(F)F)n2)cn1 [Compound 3-b, (1R,5S)-3-(2-((1-methyl-1H-pyrazol-4-yl)amino)pyrimidin-4-yl)-N-(2,2,2-trifluoroethyl)-8-azabicyclo[3.2.1]oct-2-ene-8-carboxamide]	< 100 nM
Cn1cc(Nc2nccc(C3=CC4CCC(C3)N4C(=O)C3CC3(F)Cl)n2)cn1 (stereo not shown) [Compound 50, (2-chloro-2-fluorocyclopropyl)(3-(2-((1-methyl-1H-pyrazol-4-yl)amino)pyrimidin-4-yl)-8-azabicyclo[3.2.1]oct-2-en-8-yl)methanone]	100 to 300 nM
Cn1cc(Nc2nccc(C3=CC4CCC(C3)N4C(=O)C3CC3c3ccccc3)n2)cn1 (stereo not shown) [Compound 59]	300 to 1000 nM
Cn1cc(Nc2nccc(C3=CC4CCC(C3)N4C(=O)NC3CC3(F)F)n2)cn1 (stereo not shown) [Compound 14, N-(2,2-difluorocyclopropyl)-3-(2-((1-methyl-1H-pyrazol-4-yl)amino)pyrimidin-4-yl)-8-azabicyclo[3.2.1]oct-2-ene-8-carboxamide]	100 to 300 nM
Cn1cc(Nc2nccc(C3=CC4CCC(C3)N4C(=O)N3CCC(C(F)(F)F)C3)n2)cn1 (stereo not shown) [Compound 9, (3-(2-((1-methyl-1H-pyrazol-4-yl)amino)pyrimidin-4-yl)-8-azabicyclo[3.2.1]oct-2-en-8-yl)(3-(trifluoromethyl)pyrrolidin-1-yl)methanone]	> 1000 nM
Cn1cc(Nc2nccc(C3=CC4CCC(C3)N4C3(CC#N)CN(C(=O)NCC(F)(F)F)C3)n2)cn1 (stereo not shown) [Compound 86, 3-(cyanomethyl)-3-(3-(2-((1-methyl-1H-pyrazol-4-yl)amino)pyrimidin-4-yl)-8-azabicyclo[3.2.1]oct-2-en-8-yl)-N-(2,2,2-trifluoroethyl)azetidine-1-carboxamide]	> 1000 nM
CCn1cc(Nc2nccc(C3=CC4CCC(C3)N4C(=O)[C@@H]3CC3(F)F)n2)cn1 (stereo partly drawn) [Compound 45, ((S)-2,2-Difluorocyclopropyl)(3-(2-((1-ethyl-1H-pyrazol-4-yl)amino)pyrimidin-4-yl)-8-azabicyclo[3.2.1]oct-2-en-8-yl)methanone]	100 to 300 nM
Cn1cc(Nc2nccc(C3=CC4CCC(C3)N4C(=O)c3cc(C#N)cs3)n2)cn1 (stereo not shown) [Compound 18, 5-(3-(2-((1-methyl-1H-pyrazol-4-yl)amino)pyrimidin-4-yl)-8-azabicyclo[3.2.1]oct-2-ene-8-formyl)thiophene-3-carbonitrile]	> 1000 nM
Cn1cc(Nc2nccc(C3=CC4CCC(C3)N4C(=O)COCC(F)(F)F)n2)cn1 (stereo not shown) [Compound 69, 1-(3-(2-((1-methyl-1H-pyrazol-4-yl)amino)pyrimidin-4-yl)-8-azabicyclo[3.2.1]oct-2-en-8-yl)-2-(2,2,2-trifluoroethoxy)-1-one]	300 to 1000 nM
Cn1cc(Nc2nccc(C3=CC4CCC(C3)N4CC3(C)COC3)n2)cn1 (stereo not shown) [Compound 87, N-(1-methyl-1H-pyrazol-4-yl)-4-(8-((3-methyloxetan-3-yl)methyl)-8-azabicyclo[3.2.1]oct-2-en-3-yl)pyrimidin-2-amine]	> 1000 nM
Cc1cnc(Nc2cnn(CC(C)(C)O)c2)nc1C1=C[C@@H]2CC[C@H](C1)N2C(=O)NCC(F)(F)F (single isomer, unassigned) [Compound 29-a]	< 100 nM
Cc1cnc(Nc2cnn(C)c2)nc1C1=C[C@@H]2CC[C@H](C1)N2C(=O)[C@@H]1CC1(F)F [Compound 22-a, ((S)-2,2-difluorocyclopropyl)((1S,5R)-3-(5-methyl-2-((1-methyl-1H-pyrazol-4-yl)amino)pyrimidin-4-yl)-8-azabicyclo[3.2.1]oct-2-en-8-yl)methanone]	100 to 300 nM
O=C([C@@H]1CC1(F)F)N1C2C=C(c3ccnc(Nc4cnn(C5CC5)c4)n3)CC1CC2 (stereo partly drawn) [Compound 36, (3-(2-((1-cyclopropyl-1H-pyrazol-4-yl)amino)pyrimidin-4-yl)-8-azabicyclo[3.2.1]oct-2-en-8-yl)((S)-2,2-difluorocyclopropyl)methanone]	100 to 300 nM
Cn1cc(Nc2nccc(C3=CC4CCC(C3)N4C(=O)C(C)(C)C(F)(F)F)n2)cn1 (stereo not shown) [Compound 68, 3,3,3-trifluoro-2,2-dimethyl-1-(3-(2-((1-methyl-1H-pyrazol-4-yl)amino)pyrimidin-4-yl)-8-azabicyclo[3.2.1]oct-2-en-8-yl)acetone]	300 to 1000 nM
Cc1cnc(Nc2cn(C)nc2C)nc1C1=C[C@H]2CC[C@@H](C1)N2C(=O)NCC(F)(F)F [Compound 26-b, (1R,5S)-3-(2-((1,3-dimethyl-1H-pyrazol-4-yl)amino)-5-methylpyrimidin-4-yl)-N-(2,2,2-trifluoroethyl)-8-azabicyclo[3.2.1]oct-2-ene-8-carboxamide]	< 100 nM
Cc1cnc(Nc2cnn(C)c2)nc1C1=C[C@@H]2CC[C@H](C1)N2C(=O)NCC(F)(F)F [Compound 19-a, (1S,5R)-3-(5-methyl-2-((1-methyl-1H-pyrazol-4-yl)amino)pyrimidin-4-yl)-N-(2,2,2-trifluoroethyl)-8-azabicyclo[3.2.1]oct-2-ene-8-carboxamide]	< 100 nM
Cn1cc(Nc2nccc(C3=CC4CCC(C3)N4C(=O)NCCOC(F)(F)F)n2)cn1 (stereo not shown) [Compound 58, 3-(2-((1-methyl-1H-pyrazol-4-yl)amino)pyrimidin-4-yl)-N-(2-(trifluoromethoxy)ethyl)-8-azabicyclo[3.2.1]oct-2-ene-8-carboxamide]	100 to 300 nM
Cn1cc(Nc2nccc(C3=CC4CCC(C3)N4C(=O)NCCC(F)(F)F)n2)cn1 (stereo not shown) [Compound 57, 3-(2-((1-methyl-1H-pyrazol-4-yl)amino)pyrimidin-4-yl)-N-(3,3,3-trifluoropropyl)-8-azabicyclo[3.2.1]oct-2-ene-8-carboxamide]	300 to 1000 nM
Cn1cc(Nc2nccc(C3=CC4CCC(C3)N4C(=O)C34CC(C3)C4)n2)cn1 (stereo not shown) [Compound 72, bicyclo[1.1.1]pentan-1-yl(3-(2-((1-methyl-1H-pyrazol-4-yl)amino)pyrimidin-4-yl)-8-azabicyclo[3.2.1]oct-2-en-8-yl)methanone]	> 1000 nM
O=C(NCC(F)(F)F)N1C2C=C(c3ccnc(Nc4cnn(C5CC5)c4)n3)CC1CC2 (stereo not shown) [Compound 43, 3-(2-((1-cyclopropyl-1H-pyrazol-4-yl)amino)pyrimidin-4-yl)-N-(2,2,2-trifluoroethyl)-8-azabicyclo[3.2.1]oct-2-ene-8-carboxamide]	< 100 nM
Cn1cc(Nc2nccc(C3=CC4CCC(C3)N4S(=O)(=O)NCC#N)n2)cn1 (stereo not shown) [Compound 4, N-(cyanomethyl)-3-(2-((1-methyl-1H-pyrazol-4-yl)amino)pyrimidin-4-yl)-8-azabicyclo[3.2.1]oct-2-ene-8-sulfonamide]	> 1000 nM
Cn1cc(Nc2nccc(C3=CC4CCC(C3)N4C(=O)C3CCC(F)(F)C3)n2)cn1 (stereo not shown) [Compound 70, (3,3-difluorocyclopentyl)(3-(2-((1-methyl-1H-pyrazol-4-yl)amino)pyrimidin-4-yl)-8-azabicyclo[3.2.1]oct-2-en-8-yl)methanone]	< 100 nM
Cn1cc(Nc2nccc(C3=CC4CCC(C3)N4C(=O)N3CC[C@@H](C#N)C3)n2)cn1 (stereo partly drawn) [Compound 7, (R)-1-(3-(2-((1-methyl-1H-pyrazol-4-yl)amino)pyrimidin-4-yl)-8-azabicyclo[3.2.1]oct-2-ene-8-carbonyl)pyrrolidine-3-nitrile]	> 1000 nM
C[C@H](NC(=O)N1C2C=C(c3ccnc(Nc4cnn(C)c4)n3)CC1CC2)C(F)(F)F (stereo partly drawn) [Compound 55, 3-(2-((1-Methyl-1H-pyrazol-4-yl)amino)pyrimidin-4-yl)-N-((S)-1,1,1-trifluoropropane-2-yl)-8-azabicyclo[3.2.1]oct-2-ene-8-carboxamide]	< 100 nM
Cc1cnc(Nc2cnn(C)c2)nc1C1=C[C@H]2CC[C@@H](C1)N2C(=O)NCC(F)(F)F [Compound 19-b, (1R,5S)-3-(5-methyl-2-((1-methyl-1H-pyrazol-4-yl)amino)pyrimidin-4-yl)-N-(2,2,2-trifluoroethyl)-8-azabicyclo[3.2.1]oct-2-ene-8-carboxamide]	< 100 nM
Cn1cc(Nc2nccc(C3=CC4CCC(C3)N4C(=O)C(=O)NCC#N)n2)cn1 (stereo not shown) [Compound 83, N-(cyanomethyl)-2-(3-(2-((1-methyl-1H-pyrazol-4-yl)amino)pyrimidin-4-yl)-8-azabicyclo[3.2.1]oct-2-en-8-yl)-2-oxoacetamide]	> 1000 nM
Cn1cc(Nc2ncc(Cl)c(C3=C[C@H]4CC[C@@H](C3)N4C(=O)[C@@H]3CC3(F)F)n2)cn1 [Compound 23-b, ((1R,5S)-3-(5-chloro-2-((1-methyl-1H-pyrazol-4-yl)amino)pyrimidin-4-yl)-8-azabicyclo[3.2.1]oct-2-en-8-yl)((S)-2,2-difluorocyclopropyl)methanone]	< 100 nM
